Experiments:
Type in all cases: cell-based
human TLR7 = molecular target: T1, human TLR7 (Homo sapiens, UniProt Q9NYK1); assay: TLR7 inhibition reporter assay (HEK-Blue cells, SEAP reporter); conditions: HEK-Blue cells overexpressing human TLR7; stimulated with gardiquimod 7.5 μM; SEAP read after 22 hour; dose range 0.05 nM-50 μM
T1 construct: host or cells: HEK-Blue cells
T1 sequence (Q9NYK1 27-1049): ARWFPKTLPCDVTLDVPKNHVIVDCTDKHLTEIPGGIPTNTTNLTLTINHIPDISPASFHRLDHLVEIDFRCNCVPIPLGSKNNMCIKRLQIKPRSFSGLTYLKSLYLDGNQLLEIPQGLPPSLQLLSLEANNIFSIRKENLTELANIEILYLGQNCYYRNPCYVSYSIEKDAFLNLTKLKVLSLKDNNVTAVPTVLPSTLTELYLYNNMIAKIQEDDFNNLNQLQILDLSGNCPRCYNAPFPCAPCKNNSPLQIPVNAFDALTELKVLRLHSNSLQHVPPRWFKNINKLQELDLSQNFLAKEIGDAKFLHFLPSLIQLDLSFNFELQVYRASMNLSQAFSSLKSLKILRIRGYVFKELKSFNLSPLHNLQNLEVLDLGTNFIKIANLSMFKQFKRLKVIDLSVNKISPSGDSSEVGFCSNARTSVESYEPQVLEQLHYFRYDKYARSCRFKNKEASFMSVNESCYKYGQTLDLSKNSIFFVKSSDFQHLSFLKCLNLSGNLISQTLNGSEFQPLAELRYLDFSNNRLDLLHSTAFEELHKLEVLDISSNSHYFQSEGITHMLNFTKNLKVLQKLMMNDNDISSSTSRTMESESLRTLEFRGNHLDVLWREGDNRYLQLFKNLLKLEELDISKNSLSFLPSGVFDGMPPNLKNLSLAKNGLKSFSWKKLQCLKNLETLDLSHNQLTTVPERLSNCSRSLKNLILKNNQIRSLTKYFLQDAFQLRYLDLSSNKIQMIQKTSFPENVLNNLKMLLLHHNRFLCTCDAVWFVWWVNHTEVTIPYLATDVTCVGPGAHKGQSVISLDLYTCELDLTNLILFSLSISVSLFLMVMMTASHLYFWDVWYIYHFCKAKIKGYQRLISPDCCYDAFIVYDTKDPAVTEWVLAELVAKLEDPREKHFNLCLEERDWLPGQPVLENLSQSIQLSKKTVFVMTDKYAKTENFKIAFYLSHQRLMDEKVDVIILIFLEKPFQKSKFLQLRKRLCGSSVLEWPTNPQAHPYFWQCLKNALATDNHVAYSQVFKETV
Summary of the method: (§1)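 HEK-Blue cells with NF-κB/AP-1-driven SEAP pre-treated 30 min with compounds (0.05 nM-50 μM), then stimulated with gardiquimod 7.5 μM (TLR7), R848 15.9 μM (TLR8) or ODN2006 5 nM (TLR9). SEAP read after 22 h at 37° C; % inhibition relative to agonist+DMSO and reference-inhibitor wells.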

human TLR8 = molecular target: T2, human TLR8 (Homo sapiens, UniProt Q9NR97); assay: TLR8 inhibition reporter assay (HEK-Blue cells, SEAP reporter); conditions: HEK-Blue cells overexpressing human TLR8; stimulated with R848 15.9 μM; SEAP read after 22 hour; dose range 0.05 nM-50 μM
T2 construct: host or cells: HEK-Blue cells
T2 sequence (Q9NR97 27-1041): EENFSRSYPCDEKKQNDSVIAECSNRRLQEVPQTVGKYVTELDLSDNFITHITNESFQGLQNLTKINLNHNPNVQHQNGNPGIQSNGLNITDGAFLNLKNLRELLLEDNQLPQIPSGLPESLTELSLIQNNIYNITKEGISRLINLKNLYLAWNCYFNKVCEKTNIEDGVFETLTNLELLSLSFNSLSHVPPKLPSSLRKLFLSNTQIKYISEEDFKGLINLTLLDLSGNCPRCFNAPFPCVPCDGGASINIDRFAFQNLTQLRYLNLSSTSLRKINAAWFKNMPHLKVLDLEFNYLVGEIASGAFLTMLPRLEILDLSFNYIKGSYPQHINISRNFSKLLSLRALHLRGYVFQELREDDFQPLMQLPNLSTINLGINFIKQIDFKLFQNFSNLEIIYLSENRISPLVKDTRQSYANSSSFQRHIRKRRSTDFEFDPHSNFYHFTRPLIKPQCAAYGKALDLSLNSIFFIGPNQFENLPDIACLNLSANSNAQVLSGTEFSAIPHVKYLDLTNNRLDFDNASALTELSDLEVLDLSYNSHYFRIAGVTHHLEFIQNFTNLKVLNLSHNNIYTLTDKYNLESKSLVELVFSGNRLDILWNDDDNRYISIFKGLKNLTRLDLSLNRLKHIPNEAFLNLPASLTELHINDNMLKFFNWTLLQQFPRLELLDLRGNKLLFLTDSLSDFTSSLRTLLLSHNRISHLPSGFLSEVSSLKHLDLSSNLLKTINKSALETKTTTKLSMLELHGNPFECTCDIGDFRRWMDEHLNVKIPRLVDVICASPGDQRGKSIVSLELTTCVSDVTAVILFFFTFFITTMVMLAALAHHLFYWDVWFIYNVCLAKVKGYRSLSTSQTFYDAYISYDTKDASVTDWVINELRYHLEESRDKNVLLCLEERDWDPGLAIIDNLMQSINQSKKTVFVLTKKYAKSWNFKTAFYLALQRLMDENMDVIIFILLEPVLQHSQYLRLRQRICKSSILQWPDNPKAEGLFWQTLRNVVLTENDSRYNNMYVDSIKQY
Summary of the method: as §1

human TLR9 = molecular target: T3, human TLR9 (Homo sapiens, UniProt Q9NR96); assay: TLR9 inhibition reporter assay (HEK-Blue cells, SEAP reporter); conditions: HEK-Blue cells overexpressing human TLR9; stimulated with ODN2006 5 nM; SEAP read after 22 hour; dose range 0.05 nM-50 μM
T3 construct: host or cells: HEK-Blue cells
T3 sequence (Q9NR96 26-1032): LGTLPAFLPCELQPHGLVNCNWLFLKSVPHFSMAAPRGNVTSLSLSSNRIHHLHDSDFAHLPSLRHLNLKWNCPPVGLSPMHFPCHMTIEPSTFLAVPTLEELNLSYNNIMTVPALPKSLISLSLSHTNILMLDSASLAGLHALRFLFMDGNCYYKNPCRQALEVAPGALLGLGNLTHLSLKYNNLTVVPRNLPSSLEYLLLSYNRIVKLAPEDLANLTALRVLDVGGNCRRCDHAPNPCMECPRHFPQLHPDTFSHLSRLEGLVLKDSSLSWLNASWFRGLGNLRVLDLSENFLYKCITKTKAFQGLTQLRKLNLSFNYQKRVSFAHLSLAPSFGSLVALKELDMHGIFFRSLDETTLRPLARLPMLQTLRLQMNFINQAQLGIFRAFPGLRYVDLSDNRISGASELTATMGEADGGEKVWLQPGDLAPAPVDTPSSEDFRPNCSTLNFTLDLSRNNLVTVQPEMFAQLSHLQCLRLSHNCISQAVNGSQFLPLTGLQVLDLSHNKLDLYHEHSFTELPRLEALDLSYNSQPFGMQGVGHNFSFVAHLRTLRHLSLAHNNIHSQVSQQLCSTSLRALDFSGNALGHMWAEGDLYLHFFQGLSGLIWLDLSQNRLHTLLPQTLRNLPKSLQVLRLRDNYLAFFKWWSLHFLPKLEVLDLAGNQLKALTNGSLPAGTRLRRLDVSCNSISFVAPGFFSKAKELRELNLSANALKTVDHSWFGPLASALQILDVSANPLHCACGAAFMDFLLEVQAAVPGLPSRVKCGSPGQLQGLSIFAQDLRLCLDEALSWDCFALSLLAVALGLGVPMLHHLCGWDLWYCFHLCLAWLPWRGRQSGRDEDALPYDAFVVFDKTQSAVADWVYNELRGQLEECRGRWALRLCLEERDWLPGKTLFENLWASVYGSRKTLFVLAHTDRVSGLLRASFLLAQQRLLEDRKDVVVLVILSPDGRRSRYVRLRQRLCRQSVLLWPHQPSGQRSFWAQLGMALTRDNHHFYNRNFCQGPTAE
Summary of the method: as §1

| SMILES | IC50 (human TLR7) [nM] | IC50 (human TLR8) [nM] | IC50 (human TLR9) [nM] |
| --- | --- | --- | --- |
| CC(C)N1CCC(c2ccc(-c3ccc4c(c3)cc(-c3ccc(S(C)(=O)=O)cc3)c(=O)n4CCO)cc2)CC1 [Example 72, 1-(2-hydroxyethyl)-3-(4-methanesulfonylphenyl)-6-{4-[1-(propan-2-yl)piperidin-4-yl]phenyl}-1,2-dihydroquinolin-2-one] | 3580 | 21700 | 154 |
| CC(C)N1CCC(c2ccc(-c3ccc4c(c3)cc(-c3ccccc3)c(=O)n4C)cc2)CC1 [Example 73, 1-methyl-3-phenyl-6-{4-[1-(propan-2-yl)piperidin-4-yl]phenyl}-1,2-dihydroquinolin-2-one] | 1480 | 763 | 219 |
| CC(C)N1CCC(c2ccc(-c3ccc4c(c3)cc(-c3ccc(N(C)S(C)(=O)=O)cc3)c(=O)n4C)cc2)CC1 [Example 74, N-methyl-N-[4-(1-methyl-2-oxo-6-{4-[1-(propan-2-yl)piperidin-4-yl]phenyl}-1,2-dihydroquinolin-3-yl)phenyl]methanesulfonamide] | 12000 | 29600 | 237 |
| CC(C)N1CCC(c2ccc(Nc3ccc4c(c3)cc(-c3ccc(S(C)(=O)=O)cc3)c(=O)n4C)cc2)CC1 [Example 75, 3-(4-methanesulfonylphenyl)-1-methyl-6-({4-[1-(propan-2-yl)piperidin-4-yl]phenyl}amino)-1,2-dihydroquinolin-2-one] | 6630 | ≥ 50000 | 253 |
| CN1CCC(c2ccc(-c3ccc4[nH]c(=O)c(-c5ccc(S(C)(=O)=O)cc5)cc4c3)cc2)CC1 [Example 76, 3-(4-methanesulfonylphenyl)-6-[4-(1-methylpiperidin-4-yl)phenyl]-1,2-dihydroquinolin-2-one] | 2030 | 9850 | 261 |
| CCc1c(-c2ccc(S(C)(=O)=O)cc2)c(=O)n(C)c2ccc(-c3ccc(N4CCN(C(C)C)CC4)cc3)cc12 [Example 77, 4-ethyl-3-(4-methanesulfonylphenyl)-1-methyl-6-{4-[4-(propan-2-yl)piperazin-1-yl]phenyl}-1,2-dihydroquinolin-2-one] | 10200 | 361 | 267 |
| CN1CCC(c2ccc(-c3ccc4c(c3)cc(-c3ccc(S(C)(=O)=O)cc3)c(=O)n4C)cc2)CC1 [Example 78, 3-(4-methanesulfonylphenyl)-1-methyl-6-[4-(1-methylpiperidin-4-yl)phenyl]-1,2-dihydroquinolin-2-one] | 2120 | 2260 | 286 |
| CCn1c(=O)c(-c2ccc(S(C)(=O)=O)cc2)cc2cc(-c3ccc(C4CCN(C(C)C)CC4)cc3)ccc21 [Example 79, 1-ethyl-3-(4-methanesulfonylphenyl)-6-{4-[1-(propan-2-yl)piperidin-4-yl]phenyl}-1,2-dihydroquinolin-2-one] | 5330 | 25800 | 287 |

Now from value to molecule:

| IC50 (human TLR7) [nM] | IC50 (human TLR8) [nM] | IC50 (human TLR9) [nM] | SMILES |
| --- | --- | --- | --- |
| 8380 | 15100 | 298 | CCCn1c(=O)c(-c2ccc(S(C)(=O)=O)cc2)cc2cc(-c3ccc(C4CCN(C(C)C)CC4)cc3)ccc21 [Example 80, 3-(4-methanesulfonylphenyl)-6-{4-[1-(propan-2-yl)piperidin-4-yl]phenyl}-1-propyl-1,2-dihydroquinolin-2-one] |
| 333 | 796 | 309 | CC(=O)Nc1ccc(-c2cc3cc(-c4ccc(C5CCN(C(C)C)CC5)cc4)ccc3[nH]c2=O)cc1 [Example 81, N-[4-(2-oxo-6-{4-[1-(propan-2-yl)piperidin-4-yl]phenyl}-1,2-dihydroquinolin-3-yl)phenyl]acetamide] |
| 5500 | 19100 | 312 | CC(C)N1CCC(c2ccc(-c3ccc4c(c3)cc(-c3ccc(S(C)(=O)=O)cc3)c(=O)n4CCCO)cc2)CC1 [Example 82, 1-(3-hydroxypropyl)-3-(4-methanesulfonylphenyl)-6-{4-[1-(propan-2-yl)piperidin-4-yl]phenyl}-1,2-dihydroquinolin-2-one] |
| 369 | ≥ 50000 | 354 | CC(C)N1CCC(c2ccc(-c3ccc4[nH]c(=O)c(-c5ccc(NS(C)(=O)=O)cc5)cc4c3)cc2)CC1 [Example 83, N-[4-(2-oxo-6-{4-[1-(propan-2-yl)piperidin-4-yl]phenyl}-1,2-dihydroquinolin-3-yl)phenyl]methanesulfonamide] |
| 2320 | 672 | 389 | CCc1c(-c2ccc(S(C)(=O)=O)cc2)c(=O)[nH]c2ccc(-c3ccc(N4CCN(C(C)C)CC4)cc3)cc12 [Example 84, 4-ethyl-3-(4-methanesulfonylphenyl)-6-{4-[4-(propan-2-yl)piperazin-1-yl]phenyl}-1,2-dihydroquinolin-2-one] |

Reference: US20260183275A1, “SUBSTITUTED QUINOLONE COMPOUNDS USEFUL AS INHIBITORS OF TLR9” (Bristol-Myers Squibb Company, priority 2022, published 2026)
